Target: T1, AqNR1-LBD (Amphimedon queenslandica, UniProt B1A9Z2)
T1 construct: fusion kept for serum incubation), E. coli BL21(DE3) pLysS
Assay: lipid extraction and negative-ion ESI/MS of purified LBD
Format: binding
Settings: co-purified from E. coli (also after complete serum); identified by mass as 18:0, chain isomer not told

T1 sequence (B1A9Z2 entry or part of it): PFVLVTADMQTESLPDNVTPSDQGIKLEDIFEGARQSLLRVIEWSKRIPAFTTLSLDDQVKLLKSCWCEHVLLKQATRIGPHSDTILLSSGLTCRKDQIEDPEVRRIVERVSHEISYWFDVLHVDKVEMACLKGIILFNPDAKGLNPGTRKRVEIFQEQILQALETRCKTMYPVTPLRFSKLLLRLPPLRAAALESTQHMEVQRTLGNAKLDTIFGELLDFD

CCCCCCCCCCCCCCCCCC(=O)O [18∶0 fatty acid]
lipid extraction and negative-ion ESI/MS of purified LBD: bound an array of bacterial free fatty acids (FAs)
